Columns and labels:
late watergrass = experiment: Test Example 2: herbicidal activity, application during weed generation under submerged conditions (Table 17, symbol A); assay type: in vivo, late watergrass (Echinochloa oryzicola); conditions: AAH 320 g/ha; application during weed generation, submerged conditions
Procedure, shortened: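 3-wk visual-criteria score after one water-surface dose. Emulsion formulation, water-diluted to set rate; applied at 1–2 leaf stage; alluvial soil, 4 cm standing water; seeds co-sown; greenhouse 25–30° C.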

velvetleaf [1] = experiment: Test Example 5: herbicidal effect by foliage application, plastic box (Table 20, symbol M); assay type: in vivo, velvetleaf (Abutilon theophrasti); conditions: foliage application, AAH 320 g/ha, evaluated three weeks after application
Procedure, shortened: (§1)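 Plants were sown into sterilized diluvial soil under about 1.5 cm cover and kept in a greenhouse at 25° C. to 30° C. Fourteen days on, foliage received an even spray of the diluted emulsion. Herbicidal or crop effect was judged three weeks afterwards.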

wild oat [2] = experiment: Test Example 4: herbicidal effect by soil treatment (Table 19, symbol I); assay type: in vivo, wild oat (Avena fatua); conditions: amount of applied herbicide 320 g/ha
Procedure, shortened: (§2)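 In this soil treatment, the formulated compound reached the seeds only through the soil: seeds were buried about 1.5 cm deep in sterilized diluvial soil, then the diluted emulsion was sprayed over the surface. After three weeks at 25° C. to 30° C. in a greenhouse, effects were graded on criteria from an earlier test.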

Japanese bulrush = experiment: Test Example 1: herbicidal activity, application before weed generation under submerged conditions (Table 16, symbol B); assay type: in vivo, Japanese bulrush (Schoenoplectus juncoides); conditions: 320 g/ha applied herbicide
Procedure, shortened: (§3)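 Emulsion formulation, water-diluted to set dose, was put onto the flooded surface (4 cm depth, alluvial soil) the same day weeds were sown and 2.5-leaf rice transplanted. After 3 weeks at 25-30 °C under glass, each species was rated 0 (≤5% kill) to 5 (≥90% kill).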

oval-leafed pondweed = experiment: Test Example 1: herbicidal activity, application before weed generation under submerged conditions (Table 16, symbol C); assay type: in vivo, oval-leafed pondweed (Monochoria vaginalis); conditions: 320 g/ha applied herbicide
Procedure, shortened: as §3

blackgrass = experiment: Test Example 5: herbicidal effect by foliage application, plastic box (Table 20, symbol J); assay type: in vivo, blackgrass (Alopecurus myosuroides); conditions: foliage application, AAH 320 g/ha, evaluated three weeks after application
Procedure, shortened: as §1

lambsquarters = experiment: Test Example 4: herbicidal effect by soil treatment (Table 19, symbol O); assay type: in vivo, lambsquarters (Chenopodium album); conditions: amount of applied herbicide 320 g/ha
Procedure, shortened: as §2

windgrass [3] = experiment: Test Example 5: herbicidal effect by foliage application, plastic box (Table 20, symbol L); assay type: in vivo, windgrass (Apera spica-venti); conditions: foliage application, AAH 320 g/ha, evaluated three weeks after application
Procedure, shortened: as §1

Chinese sprangletop = experiment: Test Example 3: herbicidal effect by foliage application, Wagner pot (Table 18, symbol D); assay type: in vivo, chinese sprangletop (Leptochloa chinensis); conditions: amount of applied herbicide 320 g/ha
Procedure, shortened: (§4)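 Plants were sown in alluvial soil held under 0.1–0.5 cm standing water and grown 14 days in a greenhouse at 25–30 °C. An emulsifiable formulation, water-diluted to the set dose, was then sprayed onto the foliage, and effects were scored three weeks later using previously defined criteria.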

wild oat [4] = experiment: Test Example 5: herbicidal effect by foliage application, plastic box (Table 20, symbol I); assay type: in vivo, wild oat (Avena fatua); conditions: foliage application, AAH 320 g/ha, evaluated three weeks after application
Procedure, shortened: as §1

barnyard grass [5] = experiment: Test Example 3: herbicidal effect by foliage application, Wagner pot (Table 18, symbol H); assay type: in vivo, barnyard grass (Echinochloa crus-galli); conditions: amount of applied herbicide 320 g/ha
Procedure, shortened: as §4

velvetleaf [6] = experiment: Test Example 4: herbicidal effect by soil treatment (Table 19, symbol M); assay type: in vivo, velvetleaf (Abutilon theophrasti); conditions: amount of applied herbicide 320 g/ha
Procedure, shortened: as §2

barnyard grass [7] = experiment: Test Example 4: herbicidal effect by soil treatment (Table 19, symbol H); assay type: in vivo, barnyard grass (Echinochloa crus-galli); conditions: amount of applied herbicide 320 g/ha
Procedure, shortened: as §2

windgrass [8] = experiment: Test Example 4: herbicidal effect by soil treatment (Table 19, symbol L); assay type: in vivo, windgrass (Apera spica-venti); conditions: amount of applied herbicide 320 g/ha
Procedure, shortened: as §2

rice flat sedge = experiment: Test Example 3: herbicidal effect by foliage application, Wagner pot (Table 18, symbol E); assay type: in vivo, rice flat sedge (Cyperus iria); conditions: amount of applied herbicide 320 g/ha
Procedure, shortened: as §4

chickweed = experiment: Test Example 5: herbicidal effect by foliage application, plastic box (Table 20, symbol P); assay type: in vivo, common chickweed (Stellaria media); conditions: foliage application, AAH 320 g/ha, evaluated three weeks after application
Procedure, shortened: as §1

green foxtail = experiment: Test Example 5: herbicidal effect by foliage application, plastic box (Table 20, symbol G); assay type: in vivo, green foxtail (Setaria viridis); conditions: foliage application, AAH 320 g/ha, evaluated three weeks after application
Procedure, shortened: as §1

Row | Compound | herbicidal effect rating, A: late watergrass (late watergrass) | M: velvetleaf, herbicidal effect (criteria 0-5) (velvetleaf [1]) | herbicidal effect on I: wild oat (wild oat [2]) | Herbicidal effect on B: Japanese bulrush (grade 0-5) (Japanese bulrush) | Herbicidal effect on C: oval-leafed pondweed (grade 0-5) (oval-leafed pondweed) | J: blackgrass, herbicidal effect (criteria 0-5) (blackgrass) | herbicidal effect on O: lambsquarters (lambsquarters) | L: windgrass, herbicidal effect (criteria 0-5) (windgrass [3]) | herbicidal effect on D: Chinese sprangletop (Chinese sprangletop) | I: wild oat, herbicidal effect (criteria 0-5) (wild oat [4]) | herbicidal effect on H: barnyard grass (barnyard grass [5]) | herbicidal effect on M: velvetleaf (velvetleaf [6]) | herbicidal effect on H: barnyard grass (barnyard grass [7]) | herbicidal effect on L: windgrass (windgrass [8]) | herbicidal effect on E: rice flat sedge (rice flat sedge) | P: chickweed, herbicidal effect (criteria 0-5) (chickweed) | G: green foxtail, herbicidal effect (criteria 0-5) (green foxtail)
1 | CC(=O)c1ccc(-c2sc3ccc(F)cc3c2-c2c(O)c(C)nn(C)c2=O)cc1 [2-339] | 3 (Herbicidal rate of 40% or more and less than 70%) | 5 (Herbicidal rate of 90% or more (almost completely withered)) | 0 (Herbicidal rate of 5% or less (almost no effect)) | 5 (Herbicidal rate of 90% or more (almost completely withered)) | 5 (Herbicidal rate of 90% or more (almost completely withered)) | 1 (Herbicidal rate of 5% or more and less than 20%) | 4 (Herbicidal rate of 70% or more and less than 90%) | 5 (Herbicidal rate of 90% or more (almost completely withered)) | 4 (Herbicidal rate of 70% or more and less than 90%) | 3 (Herbicidal rate of 40% or more and less than 70%) | 5 (Herbicidal rate of 90% or more (almost completely withered)) | 5 (Herbicidal rate of 90% or more (almost completely withered)) | 0 (Herbicidal rate of 5% or less (almost no effect)) | 2 (Herbicidal rate of 20% or more and less than 40%) | 4 (Herbicidal rate of 70% or more and less than 90%) | 5 (Herbicidal rate of 90% or more (almost completely withered)) | 4 (Herbicidal rate of 70% or more and less than 90%)
2 | Cc1nn(C)c(=O)c(-c2c(-c3ccc([N+](=O)[O-])cc3)sc3ccc(F)cc23)c1O [2-341] | 3 (Herbicidal rate of 40% or more and less than 70%) | 5 (Herbicidal rate of 90% or more (almost completely withered)) | 3 (Herbicidal rate of 40% or more and less than 70%) | 4 (Herbicidal rate of 70% or more and less than 90%) | 5 (Herbicidal rate of 90% or more (almost completely withered)) | 4 (Herbicidal rate of 70% or more and less than 90%) | 4 (Herbicidal rate of 70% or more and less than 90%) | 4 (Herbicidal rate of 70% or more and less than 90%) | 3 (Herbicidal rate of 40% or more and less than 70%) | 4 (Herbicidal rate of 70% or more and less than 90%) | 4 (Herbicidal rate of 70% or more and less than 90%) | 3 (Herbicidal rate of 40% or more and less than 70%) | 3 (Herbicidal rate of 40% or more and less than 70%) | 1 (Herbicidal rate of 5% or more and less than 20%) | 3 (Herbicidal rate of 40% or more and less than 70%) | 5 (Herbicidal rate of 90% or more (almost completely withered)) | 5 (Herbicidal rate of 90% or more (almost completely withered))

From patent US20230085307A1, “PYRIDAZINONE COMPOUND AND HERBICIDE” (NISSAN CHEMICAL CORPORATION, priority 2019, published 2023)
